84 molecules from PubChem BioAssay AID651973 (The Scripps Research Institute Molecular Screening Center, 2013) can be followed below.

The source made the active and inactive calls. How the calls were made is not given here. Where only a bound is given, the exact number is not on record here.

The experiment has as its system Cell-based VP16 transactivation luciferase reporter, luminescence. The experiment is described as follows: compounds lowering VP16-driven luciferase output – cell-based, luminescence, counter-screen for LRH-1 inverse agonist project, dose response (AID 651973).
By IC50 is commonly meant the concentration that inhibits the measured activity by half. For the molecule `COc1ccc(NC(=O)CSc2sc3c(O)cc(=O)[nH]c3c2C#N)c(OC)c1`, the IC50 is > 35.9 µM (inactive). As for `Cc1sc(NC(=O)C(C)C)c(C(=O)Nc2ccccc2)c1C`, the figure is > 35.9 µM (inactive); as for `O=C(Nc1ccc(C(=O)N2CCOCC2)cc1)c1cccc([N+](=O)[O-])c1`, > 35.9 µM (inactive). Regarding `NS(=O)(=O)c1ccc(O)c(NC(=O)c2ccc([N+](=O)[O-])o2)c1`, the IC50 was > 35.9 µM (inactive). With `CC(=O)Nc1cc(-c2ccc(F)cc2)cn2c(-c3ccc(S(C)(=O)=O)cc3)cnc12`, the IC50 was > 35.9 µM (inactive). As for `COc1cc2c(cc1OC)CN(C(=O)CN1C(=O)NC3(CCC(C)CC3)C1=O)CC2` (centres undefined), the figure is > 35.9 µM (inactive); as for `Cc1cc(Br)ccc1NC(=O)CN1C(=O)CCC1=O`, > 35.9 µM (inactive); as for `COc1ccc(NC(=O)CSc2ccc3c(c2)OCCO3)cc1`, > 35.9 µM (inactive). For `CCC(C)(C)n1nnnc1CN1CCC(O)(c2cccc(C(F)(F)F)c2)CC1` the value was > 35.9 µM (inactive); for `Cc1ccccc1Nc1nc(-c2cccnc2)nc2ccccc12`, 34.6 µM (inactive); for `Cc1ccn2c(=O)nc(SCC(=O)Nc3ccc4c(c3)OCCO4)nc2c1`, > 35.9 µM (inactive).

For `COc1cc(OC)cc(-c2oc3cccnc3c2C#CCCO)c1`, the IC50 was > 35.9 µM (inactive).

In the case of `O=C(COC(=O)CCN1C(=O)C2CC=CCC2C1=O)NCCc1ccccc1` (centres undefined), the IC50 is > 35.9 µM (inactive). For `O=C(COc1ccc2c3c(c(=O)oc2c1)CCC3)NCc1ccncc1` the value was > 35.9 µM (inactive); for `CC(=O)Nc1ccc(N=c2cc([N+](=O)[O-])cc(Cl)n2O)cc1`, > 35.9 µM (inactive); for `CCCc1cc(=O)oc2c(C)c(OCC(=O)NC3CC(C)(C)NC(C)(C)C3)ccc12`, > 35.9 µM (inactive).

On to `O=C(CSc1nncc(=O)[nH]1)Nc1cccc([N+](=O)[O-])c1`, for which the IC50 is 34.4 µM (inactive).

For the molecule `COc1ccc(CCNC(=O)COC(=O)Cc2ccccc2[N+](=O)[O-])cc1`, the IC50 is > 35.9 µM (inactive). For `COc1ccccc1NC(=O)c1ccc(NC(=O)CSc2nnnn2C)cc1` the value was > 35.9 µM (inactive); for `Cc1cccc(NC(=O)COC(=O)CN2C(=O)c3ccccc3C2=O)c1C`, > 35.9 µM (inactive). As for `Cc1onc(-c2cccc(Cl)c2Cl)c1C(=O)O/N=C(\N)c1ccc([N+](=O)[O-])o1`, the figure is > 35.9 µM (inactive); as for `CCCOc1ccc(NC(=O)CC2C(=O)N(C)C(=S)N2Cc2ccc3c(c2)OCO3)cc1` (centres undefined), 8.7 µM. As to `Cc1cc(C)c2nc(NC(=O)c3ccc([N+](=O)[O-])o3)sc2c1`, the IC50 is > 35.9 µM (inactive).

For `Cc1c(Cl)cccc1NC(=O)CS(=O)(=O)c1ccccc1`, the IC50 is > 35.8 µM (inactive). For the molecule `CS(=O)(=O)c1ccc(-c2cc(NC=O)c3ncc(-c4ccc(F)cc4)n3c2)cc1`, the IC50 was 14.6 µM (inactive).

Consider `COc1ccc(CC(NC(C)=O)C(=O)NC2CCN(c3nnnn3-c3ccccc3)CC2)cc1` (centres undefined), for which the IC50 is > 35.9 µM (inactive). For `COc1ccnc(Oc2ccccc2)c1C(=O)N/C=N/OCc1ccccc1F` the value was 28.2 µM (inactive); for `O=[N+]([O-])c1cc(F)c(N2CCCCCC2)cc1N1CCNCC1`, 19.3 µM (inactive). As for `Cc1ccc(NC(=O)COC(=O)C(NS(=O)(=O)c2ccc(Cl)cc2)C(C)O)cc1C` (centres undefined), the figure is > 35.9 µM (inactive); as for `COc1ccc(NC(=O)COC(=O)c2cc(S(=O)(=O)N3CCCC3)ccc2O)cc1`, > 35.9 µM (inactive); as for `COC(=O)c1ccc(NC(=O)CSc2nn3c(=O)c(C)nnc3s2)cc1`, > 35.9 µM (inactive). For `COc1ccc(NC(=O)CSc2nnc3ccc(-c4cccnc4)nn23)cc1OC` the value was > 35.9 µM (inactive). For the molecule `O=C(Nc1ccc(Br)cn1)c1ccc([N+](=O)[O-])o1`, the IC50 is > 35.9 µM (inactive).

As to `CC(O)(c1cccc(F)c1)c1nc(-c2ccc(S(C)(=O)=O)cc2)cs1` (centres undefined), the IC50 is 16.2 µM (inactive). As for `N=c1sccn1CC(=O)Nc1ccc(S(N)(=O)=O)cc1`, the figure is > 35.9 µM (inactive); as for `O=C(COc1ccc2c3c(c(=O)oc2c1)CCCC3)NCCN1CCOCC1`, > 35.8 µM (inactive); as for `O=C(NC1CCCC(C(F)(F)F)C1)c1ccc([N+](=O)[O-])o1` (centres undefined), > 35.9 µM (inactive). As to `CCCc1cc(=O)oc2cc(OCC(=O)NCCc3ccc(S(N)(=O)=O)cc3)ccc12`, the IC50 is > 35.9 µM (inactive). For `Cc1ccc(-c2nn3c(C)nnc3s2)cc1NC(=O)c1cccs1` the value was > 35.9 µM (inactive). On to `Cc1ccc(-c2nn3c(C)nnc3s2)cc1NC(=O)c1ccco1`, for which the IC50 is > 35.9 µM (inactive).

For `Cc1cc(NC(=O)c2ccc([N+](=O)[O-])o2)ccc1NC(=O)c1ccco1`, the IC50 was > 35.9 µM (inactive). As for `Cc1ccc(NC(=O)CN2C(=O)NC(C)(CC(C)C)C2=O)c(Br)c1` (centres undefined), the figure is > 35.9 µM (inactive); as for `COc1ccc(CCNC(=O)CSc2nn3c(=O)c(C)nnc3s2)cc1OC`, > 35.9 µM (inactive); as for `CCCN(CC(=O)Nc1ccc(C(C)=O)cc1)CC(=O)Nc1ccccc1C`, > 35.9 µM (inactive).

Take `Nc1ccc(C(=O)NN2C(=O)[C@H](Cl)C2c2ccc(Cl)cc2)cc1` (some centres undefined): the IC50 was 9.87 µM. As for `O=C(CSc1nnc(CNC(=O)c2c(F)cccc2F)o1)Nc1ccc2c(c1)OCCO2`, the figure is > 35.9 µM (inactive); as for `Cc1cc(Br)ccc1NC(=O)CSc1nnc(CN2CCOCC2)n1C`, > 35.9 µM (inactive). As for `CCOc1ccc(Cc2nnc(SCC(=O)Nc3ccc(C(C)=O)cc3)[nH]c2=O)cc1`, the figure is > 35.9 µM (inactive). For `COc1ccc(NC(=O)COC(=O)Cc2c[nH]c3ccccc23)cc1Cl` the value was > 35.9 µM (inactive). Take `CC(=O)Nc1cc(-c2cccc(F)c2)cn2c(-c3ccc(S(C)(=O)=O)cc3)cnc12`: the IC50 is 18.7 µM (inactive). For `CCCN(CC(=O)Nc1ccccc1C)CC(=O)Nc1ccc(Br)cc1F` the value was > 35.9 µM (inactive). As for `Cc1cc(Br)ccc1NC(=O)CN1C(=O)C2CC=CCC2C1=O` (centres undefined), the figure is > 35.9 µM (inactive); as for `COc1ccc(CCn2c(C)cc(C(=O)COC(=O)c3ccc(O)cc3O)c2C)cc1`, > 35.9 µM (inactive); as for `CCCc1cc(=O)oc2cc(C)cc(OCC(=O)NC3CC3)c12`, > 35.9 µM (inactive).

With `COCCNc1ccc([N+](=O)[O-])cc1C(=O)NC1CCCc2ccccc21` (centres undefined), the IC50 was > 35.9 µM (inactive).

`CN1CCN(c2ccc(S(=O)(=O)N3CCCCC3)cc2NC(=O)COc2ccc([N+](=O)[O-])cc2)CC1`: the IC50 was > 35.9 µM (inactive). For `COc1ccc(CCNC(=O)COC(=O)C23CC4CC(CC(C4)C2)C3)cc1` the value was > 35.9 µM (inactive); for `Cc1cc(C)c2sc(NC(=O)c3ccc([N+](=O)[O-])o3)nc2c1`, > 35.8 µM (inactive); for `CCOc1ccc(CCNC(=O)CN2C(=O)NC3(CCc4ccccc43)C2=O)cc1OCC` (centres undefined), > 35.9 µM (inactive).

Regarding `COc1ccc(CCNC(=O)CSc2ccc(NC(C)=O)cc2)cc1OC`, the IC50 was > 35.9 µM (inactive). Regarding `CC(C)(Oc1ccc(Cl)cc1)C(=O)OCC(=O)NCCc1ccccc1`, the IC50 is > 35.9 µM (inactive). As for `CCOc1ccc(NC(=O)CSc2nc3[nH]ncc3c(=O)[nH]2)cc1`, the figure is > 35.9 µM (inactive); as for `Cc1nn(CC(=O)Nc2ccc3c(c2)OCCO3)c(C)c1[N+](=O)[O-]`, > 35.9 µM (inactive); as for `Cc1cc(C)c2c(=O)[nH]c(SCC(=O)Nc3ccc(Br)cc3)nc2n1`, > 35.9 µM (inactive). For `O=C(CSc1nc(=O)n2cc(Cl)ccc2n1)Nc1ccc2c(c1)OCCO2` the value was > 35.9 µM (inactive). Consider `O=C(Nc1ccccc1C(=O)Nc1nccs1)c1ccccc1`, for which the IC50 was 14.7 µM (inactive). As for `COc1cccc(NC(=O)c2oc3ccccc3c2NC(=O)C2CC2)c1`, the figure is > 35.9 µM (inactive); as for `O=C(Cc1ccc(S(=O)(=O)N2CCCC2)s1)Nc1cccc([N+](=O)[O-])c1`, 14.1 µM (inactive); as for `O=C(NCc1cccnc1)c1cccc2c1C(=O)N(C1CCCCC1)C2`, > 35.9 µM (inactive). As for `CC(O)(c1cccnc1)c1nc(-c2cccc(C#N)c2)cs1` (centres undefined), the figure is > 35.9 µM (inactive); as for `CCOc1ccc(NC(=O)CSc2nnc(C(C)C)n2CC)cc1`, > 35.9 µM (inactive).

For the molecule `CC(=O)c1ccc(NC(=O)C(C)O/N=C(\N)c2ccccc2)cc1` (centres undefined), the IC50 was > 35.9 µM (inactive). Take `COc1ccc(C2(C)NC(=O)N(CC(=O)NCCC3=CCCCC3)C2=O)cc1OC` (centres undefined): the IC50 was > 35.9 µM (inactive). As to `Cc1onc(-c2c(F)cccc2Cl)c1C(=O)O/N=C(\N)c1ccc([N+](=O)[O-])o1`, the IC50 is > 35.9 µM (inactive).

In the case of `CCOC(=O)c1cc2sccc2n1CC(=O)Nc1ccc2c(c1)OCCO2`, the IC50 is > 35.9 µM (inactive).

Regarding `CCc1cc(=O)oc2c(C)c(OCC(=O)NCCCN3CCOCC3)ccc12`, the IC50 was > 35.9 µM (inactive). As for `O=C(Nc1ccc(S(=O)(=O)N2CCOCC2)cc1)c1ccc([N+](=O)[O-])o1`, the figure is 25.5 µM (inactive); as for `COC(=O)c1ccc(NC(=O)CSc2nc3ncccc3[nH]2)cc1`, > 35.9 µM (inactive); as for `COc1cccc(C(=O)COc2cccc(NC(=O)c3cccc([N+](=O)[O-])c3)c2)c1`, 8.46 µM.

In the case of `Cc1ccc(NC(=O)COC(=O)c2cc(=O)c3ccccc3o2)c(Br)c1`, the IC50 is > 35.9 µM (inactive). For `Cc1onc(-c2ccccc2)c1C(=O)O/N=C(\N)c1ccc([N+](=O)[O-])o1` the value was > 35.9 µM (inactive).

As to `CC(=O)Nc1ccc(NC(=O)CSc2nnc(NC(=O)C3CC3)s2)cc1`, the IC50 is > 35.9 µM (inactive). As for `O=C1CCCN2N=C(SCC(=O)Nc3ccc(Br)cc3)SC2=N1`, the figure is > 35.9 µM (inactive); as for `COC(=O)c1ccc(CNC(=O)COC(=O)c2cc(Cl)nc(Cl)c2)cc1`, > 35.9 µM (inactive).
